Results on 3 compounds are retold here after ChEMBL document CHEMBL1201862, “PubChem BioAssay data set” (2004).

Active and inactive are the calls of the source.

Assay [1] deals with T1, Sentrin-specific protease 8 (Homo sapiens, UniProt Q96LD8).
T1 sequence (Q96LD8 whole entry): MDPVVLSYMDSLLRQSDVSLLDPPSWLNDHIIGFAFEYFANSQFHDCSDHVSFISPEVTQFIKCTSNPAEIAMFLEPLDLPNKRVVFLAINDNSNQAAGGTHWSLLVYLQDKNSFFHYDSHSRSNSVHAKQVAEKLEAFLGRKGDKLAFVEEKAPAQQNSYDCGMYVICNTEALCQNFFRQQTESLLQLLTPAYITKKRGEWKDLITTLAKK
The assay is classed as functional.

Assay [2] deals with T2, Neuropeptide Y receptor type 1 (Homo sapiens, UniProt P25929).
T2 sequence (P25929 whole entry): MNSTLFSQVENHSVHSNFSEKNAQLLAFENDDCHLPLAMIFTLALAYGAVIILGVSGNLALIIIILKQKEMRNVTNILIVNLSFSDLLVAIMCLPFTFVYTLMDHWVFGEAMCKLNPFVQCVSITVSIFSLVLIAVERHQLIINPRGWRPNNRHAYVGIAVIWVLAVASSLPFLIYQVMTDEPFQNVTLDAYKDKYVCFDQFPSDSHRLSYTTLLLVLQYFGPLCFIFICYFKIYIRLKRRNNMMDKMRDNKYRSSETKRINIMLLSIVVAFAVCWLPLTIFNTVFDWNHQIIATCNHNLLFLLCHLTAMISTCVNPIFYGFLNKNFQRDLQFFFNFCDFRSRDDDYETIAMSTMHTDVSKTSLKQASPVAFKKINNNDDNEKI
As to the kind of experiment: Fluorescence-based dose response cell-based high-throughput screening assay for agonists of NPY-Y1. [Related pubchem assays: 1697 (Screening assay (NPY-Y1 agonists).), 1359 (Screening assay (NPY-Y2 potentiators or agonists).), 1304 (Screening assay (NPY-Y1 potentiators or agonists).), 1704 (Screening assay (CNGC inhibitors).), 1791 (Summary AID.)]. The assay is classed as functional.

Assay [3] deals with T3, Neuropeptide Y receptor type 2 (Homo sapiens, UniProt P49146).
T3 sequence (P49146 whole entry): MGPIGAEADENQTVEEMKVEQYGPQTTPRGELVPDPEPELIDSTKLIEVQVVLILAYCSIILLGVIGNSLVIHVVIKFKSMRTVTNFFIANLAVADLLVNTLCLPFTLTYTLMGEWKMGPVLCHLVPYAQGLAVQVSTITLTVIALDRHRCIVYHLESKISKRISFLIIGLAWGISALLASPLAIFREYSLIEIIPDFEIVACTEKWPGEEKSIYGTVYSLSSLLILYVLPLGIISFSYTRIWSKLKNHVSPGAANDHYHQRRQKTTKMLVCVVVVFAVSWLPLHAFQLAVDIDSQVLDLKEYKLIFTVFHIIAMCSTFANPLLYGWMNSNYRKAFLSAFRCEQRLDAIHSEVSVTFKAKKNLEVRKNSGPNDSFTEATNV
As to the kind of experiment: Fluorescence-based counterscreen for agonists of NPY-Y1: cell-based high-throughput dose response assay for agonists of NPY-Y2. It counts as functional. (In general: The purpose of a counterscreen is to sort out artefacts and off-target activity.)

Assay [4] is described as follows: cytotoxicity in MIN6 insulinoma cells, dose response, cytotoxicity control, cell-based, mouse insulinoma (AID 2122).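 Also: confirmatory high-throughput counterscreen run to flag cytotoxic compounds; mouse MIN-6 beta cells carrying an insulin promoter eGFP reporter.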 It counts as functional.
A further assay has as its target Nonstructural protein 1 (Influenza A virus, UniProt Q194T2). It counts as functional, Influenza A virus (A/California/07/2009(H1N1)).
A further assay concerns the target T4, Protein Tat (Human immunodeficiency virus type 1 group M subtype B (isolate HXB2)(HIV-1), UniProt P04608).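 Also: tat binding to TAR RNA read out by fluorescence polarization.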
T4 sequence (P04608 whole entry): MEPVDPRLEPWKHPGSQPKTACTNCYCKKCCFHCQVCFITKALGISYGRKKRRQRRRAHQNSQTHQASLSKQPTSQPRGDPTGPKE
It counts as functional.

Assay [5] has as its target Serine/threonine-protein kinase PLK3 (Homo sapiens, UniProt Q9H4B4). It counts as functional.
Assay [6] has as its target Dual specificity protein kinase CLK4 (Homo sapiens, UniProt Q9HAZ1). The assay is classed as functional.
The target in assay [7] is Tyrosine-protein kinase HCK (Homo sapiens, UniProt P08631). Nature of the assay: Navigating the Kinome. Panel member name: HCK. It counts as functional.
In assay [8] the target is Serine/threonine-protein kinase PLK1 (Homo sapiens, UniProt P53350). The assay is classed as functional.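 Also: PLK1 measured as one member of a kinome-wide profiling panel.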
For assay [9], the target named is Phosphorylase b kinase gamma catalytic chain, liver/testis isoform (Homo sapiens, UniProt P15735). It counts as functional.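 Also: PHKG2 measured as one member of a kinome-wide kinase panel.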
Assay [10] deals with Tyrosine-protein kinase Blk (Homo sapiens, UniProt P51451). The assay is classed as functional.
Assay [11] concerns the target Death-associated protein kinase 3 (Homo sapiens, UniProt O43293). It counts as functional.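 Also: measured as one member of a kinome-wide profiling panel.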
The target in assay [12] is Serine/threonine-protein kinase PAK 4 (Homo sapiens, UniProt O96013). It counts as functional.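 Also: value obtained within a kinome profiling panel in which PAK4 was one of the panel members.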
For assay [13], the target named is Protein kinase C theta type (Homo sapiens, UniProt Q04759). Nature of the assay: Navigating the Kinome. Panel member name: PRKCQ. It counts as functional.
For a further assay, the target named is Misshapen-like kinase 1 (Homo sapiens, UniProt Q8N4C8). The assay is classed as functional.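 Also: kinome panel screen with MINK as the panel member.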
The target of the next assay is SRSF protein kinase 1 (Homo sapiens, UniProt Q96SB4). The assay is classed as functional.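 Also: measured as one member of a kinome-wide kinase profiling panel.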
For assay [14], the target named is Mitogen-activated protein kinase 8 (Homo sapiens, UniProt P45983). The assay is classed as functional.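 Also: value comes from one member of a kinome-wide kinase profiling panel.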
For assay [15], the target named is Megakaryocyte-associated tyrosine-protein kinase (Homo sapiens, UniProt P42679). It counts as functional.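 Also: affinity measured as one member of a kinase panel (Navigating the Kinome) against MATK.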
The target of assay [16] is Cyclin-dependent kinase 2 (Homo sapiens, UniProt P24941). It counts as functional.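 Also: CDK2 measured as one member of a broad kinome profiling panel.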
Assay [17] concerns the target Mitogen-activated protein kinase 13 (Homo sapiens, UniProt O15264). It counts as functional.
The target of assay [18] is Tyrosine-protein kinase Lck (Homo sapiens, UniProt P06239). It counts as functional.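 Also: lck was assayed as one member of a kinase panel.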
The target in assay [19] is Dual specificity tyrosine-phosphorylation-regulated kinase 1A (Homo sapiens, UniProt Q13627). The assay is classed as functional.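 Also: measured against DYRK1A as one member of a broad kinome profiling panel.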
The target of assay [20] is Serine/threonine-protein kinase SIK2 (Homo sapiens, UniProt Q9H0K1). Nature of the assay: Navigating the Kinome. Panel member name: SIK2. It counts as functional.
In assay [21] the target is Homeodomain-interacting protein kinase 2 (Homo sapiens, UniProt Q9H2X6). The assay is classed as functional.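 Also: measured within a kinome-wide kinase profiling panel, HIPK2 being one panel member.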
Chain of Homeodomain-interacting protein kinase 2 (Q9H2X6 whole entry): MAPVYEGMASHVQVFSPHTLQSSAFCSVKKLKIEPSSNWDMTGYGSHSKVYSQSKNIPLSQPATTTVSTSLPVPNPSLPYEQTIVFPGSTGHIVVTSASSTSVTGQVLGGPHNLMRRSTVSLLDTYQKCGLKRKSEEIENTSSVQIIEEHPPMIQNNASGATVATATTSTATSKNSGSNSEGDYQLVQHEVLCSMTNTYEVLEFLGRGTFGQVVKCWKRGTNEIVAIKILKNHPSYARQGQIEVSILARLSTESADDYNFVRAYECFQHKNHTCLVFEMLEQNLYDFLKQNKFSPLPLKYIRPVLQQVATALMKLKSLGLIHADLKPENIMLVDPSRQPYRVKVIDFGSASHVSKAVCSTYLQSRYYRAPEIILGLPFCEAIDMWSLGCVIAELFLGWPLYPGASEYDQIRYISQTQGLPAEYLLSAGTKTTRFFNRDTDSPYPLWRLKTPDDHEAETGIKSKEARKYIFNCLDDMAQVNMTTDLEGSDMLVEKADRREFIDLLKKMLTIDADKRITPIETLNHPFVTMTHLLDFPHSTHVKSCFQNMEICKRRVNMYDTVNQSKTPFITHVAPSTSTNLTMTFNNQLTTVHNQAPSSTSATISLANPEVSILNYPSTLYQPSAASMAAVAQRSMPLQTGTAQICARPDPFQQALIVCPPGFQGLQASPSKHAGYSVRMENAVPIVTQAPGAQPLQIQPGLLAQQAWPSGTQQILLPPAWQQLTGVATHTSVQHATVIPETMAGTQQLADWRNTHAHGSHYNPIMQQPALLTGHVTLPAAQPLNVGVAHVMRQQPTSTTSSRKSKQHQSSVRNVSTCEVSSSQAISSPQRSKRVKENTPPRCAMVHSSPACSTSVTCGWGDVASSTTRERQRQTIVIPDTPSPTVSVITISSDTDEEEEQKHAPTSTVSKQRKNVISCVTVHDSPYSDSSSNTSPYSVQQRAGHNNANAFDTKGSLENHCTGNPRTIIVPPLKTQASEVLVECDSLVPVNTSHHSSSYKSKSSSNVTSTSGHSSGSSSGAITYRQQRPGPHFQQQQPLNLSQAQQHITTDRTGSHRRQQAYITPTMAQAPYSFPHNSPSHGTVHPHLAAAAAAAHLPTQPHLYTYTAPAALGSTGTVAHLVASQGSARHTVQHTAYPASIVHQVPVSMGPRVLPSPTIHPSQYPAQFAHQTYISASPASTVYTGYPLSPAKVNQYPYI
Assay [22] deals with ALK tyrosine kinase receptor (Homo sapiens, UniProt Q9UM73). It counts as functional.
The target in assay [23] is Serine/threonine-protein kinase TBK1 (Homo sapiens, UniProt Q9UHD2). Nature of the assay: Navigating the Kinome. Panel member name: TBK1. It counts as functional.
Chain of Serine/threonine-protein kinase TBK1 (Q9UHD2 whole entry): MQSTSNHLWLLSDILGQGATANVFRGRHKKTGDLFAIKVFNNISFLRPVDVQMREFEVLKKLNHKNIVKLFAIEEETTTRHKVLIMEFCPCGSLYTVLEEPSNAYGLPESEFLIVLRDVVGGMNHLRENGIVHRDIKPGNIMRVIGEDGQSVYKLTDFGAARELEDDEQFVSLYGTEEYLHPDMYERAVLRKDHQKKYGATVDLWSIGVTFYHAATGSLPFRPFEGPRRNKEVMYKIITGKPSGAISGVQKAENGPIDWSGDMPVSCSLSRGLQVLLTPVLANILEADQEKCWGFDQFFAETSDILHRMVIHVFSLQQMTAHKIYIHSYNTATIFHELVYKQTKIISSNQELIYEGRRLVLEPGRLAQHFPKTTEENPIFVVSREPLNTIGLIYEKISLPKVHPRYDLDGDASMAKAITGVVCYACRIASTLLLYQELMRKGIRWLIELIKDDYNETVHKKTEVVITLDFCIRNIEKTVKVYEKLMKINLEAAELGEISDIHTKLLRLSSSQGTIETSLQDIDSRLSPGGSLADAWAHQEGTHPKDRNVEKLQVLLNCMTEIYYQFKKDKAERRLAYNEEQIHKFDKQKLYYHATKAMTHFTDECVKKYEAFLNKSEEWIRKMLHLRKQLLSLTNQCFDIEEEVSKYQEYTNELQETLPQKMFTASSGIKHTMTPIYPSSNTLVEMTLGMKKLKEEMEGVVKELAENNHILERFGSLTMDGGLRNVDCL
The target of assay [24] is Homeodomain-interacting protein kinase 4 (Homo sapiens, UniProt Q8NE63). The assay is classed as functional.
Assay [25] addresses Tyrosine-protein kinase JAK2 (Homo sapiens, UniProt O60674). The assay is classed as functional.
For the next assay, the target named is Ephrin type-A receptor 2 (Homo sapiens, UniProt P29317). The assay is classed as functional.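 Also: EPHA2 tested as one member of a kinome-wide kinase panel.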
Chain of Ephrin type-A receptor 2 (P29317 whole entry): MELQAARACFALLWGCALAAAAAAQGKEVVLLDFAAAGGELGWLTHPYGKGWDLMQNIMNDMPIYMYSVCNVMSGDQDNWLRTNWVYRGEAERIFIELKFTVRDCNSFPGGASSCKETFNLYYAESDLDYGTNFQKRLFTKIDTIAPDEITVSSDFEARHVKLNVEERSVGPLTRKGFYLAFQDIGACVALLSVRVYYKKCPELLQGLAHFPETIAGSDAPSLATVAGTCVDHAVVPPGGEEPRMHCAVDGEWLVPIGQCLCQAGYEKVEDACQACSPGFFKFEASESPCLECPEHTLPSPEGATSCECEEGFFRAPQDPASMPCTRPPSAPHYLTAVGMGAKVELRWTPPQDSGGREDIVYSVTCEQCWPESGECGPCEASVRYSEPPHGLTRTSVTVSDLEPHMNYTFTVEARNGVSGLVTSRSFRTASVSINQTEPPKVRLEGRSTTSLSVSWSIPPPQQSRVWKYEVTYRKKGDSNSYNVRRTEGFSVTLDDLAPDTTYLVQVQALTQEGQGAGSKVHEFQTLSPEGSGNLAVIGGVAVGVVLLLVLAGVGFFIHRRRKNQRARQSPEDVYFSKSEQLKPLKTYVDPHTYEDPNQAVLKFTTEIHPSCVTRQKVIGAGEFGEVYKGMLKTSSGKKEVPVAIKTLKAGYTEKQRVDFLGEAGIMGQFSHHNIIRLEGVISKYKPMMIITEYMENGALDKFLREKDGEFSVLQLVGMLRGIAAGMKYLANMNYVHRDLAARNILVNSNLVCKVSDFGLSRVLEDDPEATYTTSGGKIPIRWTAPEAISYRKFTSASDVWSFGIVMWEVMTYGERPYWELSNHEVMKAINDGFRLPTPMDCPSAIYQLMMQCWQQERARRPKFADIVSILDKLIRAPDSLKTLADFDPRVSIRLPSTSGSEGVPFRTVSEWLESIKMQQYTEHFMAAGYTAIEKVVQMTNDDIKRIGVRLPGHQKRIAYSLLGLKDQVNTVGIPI

Chain of Nonstructural protein 1 (Q194T2 whole entry): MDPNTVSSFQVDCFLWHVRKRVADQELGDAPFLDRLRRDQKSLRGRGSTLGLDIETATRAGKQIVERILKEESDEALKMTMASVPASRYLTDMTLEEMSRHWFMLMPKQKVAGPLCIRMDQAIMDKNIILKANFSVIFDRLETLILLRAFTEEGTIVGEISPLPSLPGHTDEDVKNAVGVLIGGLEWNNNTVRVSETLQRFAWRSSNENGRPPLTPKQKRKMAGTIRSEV
Chain of Dual specificity protein kinase CLK4 (Q9HAZ1 whole entry): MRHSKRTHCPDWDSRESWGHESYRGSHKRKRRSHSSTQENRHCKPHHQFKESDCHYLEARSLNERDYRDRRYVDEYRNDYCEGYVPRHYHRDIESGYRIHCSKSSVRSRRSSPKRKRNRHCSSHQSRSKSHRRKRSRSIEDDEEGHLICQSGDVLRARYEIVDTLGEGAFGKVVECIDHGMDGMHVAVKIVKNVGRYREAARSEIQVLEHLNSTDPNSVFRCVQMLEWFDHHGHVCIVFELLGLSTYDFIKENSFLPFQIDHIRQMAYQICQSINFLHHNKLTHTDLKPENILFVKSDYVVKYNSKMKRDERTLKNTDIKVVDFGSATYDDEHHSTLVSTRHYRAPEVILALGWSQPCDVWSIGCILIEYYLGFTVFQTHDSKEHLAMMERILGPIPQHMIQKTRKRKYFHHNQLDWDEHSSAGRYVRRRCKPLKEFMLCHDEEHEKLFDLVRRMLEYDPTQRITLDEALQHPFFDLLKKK
Chain of Tyrosine-protein kinase JAK2 (O60674 whole entry): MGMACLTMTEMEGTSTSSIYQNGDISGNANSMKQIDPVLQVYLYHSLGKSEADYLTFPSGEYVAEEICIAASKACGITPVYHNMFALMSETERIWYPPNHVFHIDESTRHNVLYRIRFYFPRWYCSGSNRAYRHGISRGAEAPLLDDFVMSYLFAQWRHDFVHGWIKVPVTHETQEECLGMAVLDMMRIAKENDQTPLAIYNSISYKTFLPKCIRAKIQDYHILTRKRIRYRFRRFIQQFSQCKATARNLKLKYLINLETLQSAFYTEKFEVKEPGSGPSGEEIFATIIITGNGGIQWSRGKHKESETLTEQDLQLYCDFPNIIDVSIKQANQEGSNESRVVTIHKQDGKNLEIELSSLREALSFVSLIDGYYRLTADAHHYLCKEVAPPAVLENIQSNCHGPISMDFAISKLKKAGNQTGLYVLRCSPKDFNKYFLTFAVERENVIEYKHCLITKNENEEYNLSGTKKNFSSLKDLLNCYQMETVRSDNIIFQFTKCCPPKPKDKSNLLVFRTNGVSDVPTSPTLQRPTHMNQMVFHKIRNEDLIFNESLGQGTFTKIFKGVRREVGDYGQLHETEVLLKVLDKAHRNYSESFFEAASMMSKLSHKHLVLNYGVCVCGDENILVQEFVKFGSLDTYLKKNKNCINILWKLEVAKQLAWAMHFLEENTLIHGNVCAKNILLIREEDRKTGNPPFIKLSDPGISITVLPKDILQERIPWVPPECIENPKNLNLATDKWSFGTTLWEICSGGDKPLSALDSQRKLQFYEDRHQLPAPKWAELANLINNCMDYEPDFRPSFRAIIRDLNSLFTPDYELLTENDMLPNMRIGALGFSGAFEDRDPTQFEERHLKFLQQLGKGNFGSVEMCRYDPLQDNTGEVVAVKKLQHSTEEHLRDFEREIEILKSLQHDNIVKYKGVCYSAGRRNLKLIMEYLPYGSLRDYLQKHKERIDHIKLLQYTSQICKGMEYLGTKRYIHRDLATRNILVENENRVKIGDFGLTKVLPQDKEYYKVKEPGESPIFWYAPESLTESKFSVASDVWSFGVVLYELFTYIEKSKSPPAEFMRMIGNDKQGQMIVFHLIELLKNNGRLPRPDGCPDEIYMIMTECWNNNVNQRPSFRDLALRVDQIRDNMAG

As usually defined, the IC50 is the concentration at which inhibition is half-maximal. For `O=C(COC(=O)c1ccc([N+](=O)[O-])s1)NCCc1ccccc1`, the IC50 in assay [1] is 2.82 µM (active).

As usually defined, the EC50 is the concentration needed to bring the measured effect to its halfway point. For the compound `COCC/N=c1\scc(-c2cccs2)n1/N=C/c1ccc(O)c(O)c1O`, the figures for the concentration giving a half-maximal response (EC50) in [2] and in assay [3] were > 11.8 µM (not active) and 19.3 µM (not active), respectively. Besides, the IC50 is > 16 µM (inactive) in assay [4], 42.9 µM (active) on Nonstructural protein 1 and > 100 µM (inconclusive) on Protein Tat.

By Ki is commonly meant a dissociation constant, usually derived from enzyme kinetics or from competition with a known ligand. For the compound `OC1CCC(Nc2cc(Cl)nc(-c3c[nH]c4ncccc34)n2)CC1` (stereo not given), the Ki in assay [5] was 3.98 µM (active); in assay [6], 0.02 µM (active); in assay [7] it was > 3.16 µM (inactive); in assay [8], > 5.01 µM (inactive); in assay [9], > 5.01 µM (inactive); in assay [10], > 0.794 µM (inactive). Besides, the Ki is 0.316 µM (active) in [11]; 0.1 µM (active) in assay [12]; 0.1 µM (active) in [13]; 0.00398 µM (active) at Misshapen-like kinase 1; > 7.94 µM (inactive) on SRSF protein kinase 1; 2.51 µM (active) in assay [14]. Besides, the Ki in assay [15] is 1.58 µM (active); in [16], 0.251 µM (active); in [17], 1.26 µM (active); in assay [18], > 3.16 µM (inactive); in assay [19], 0.0501 µM (active); in [20] it was 0.398 µM (active). Besides, the Ki in assay [21] was 0.0794 µM (active); in [22], > 2.51 µM (inactive); in assay [23], > 3.16 µM (inactive); in [24] it was 1 µM (active); in assay [25], 0.158 µM (active); at Ephrin type-A receptor 2 it was > 3.16 µM (inactive).
